Read-outs that look alike come from different tables or passages of the source.
Tested on: subcutaneous MCF7-Y537S human breast cancer cell line xenograft
Conditions: for Tumor volume changes from baseline: Median / Regressions Complete / Regressions Partial / Median % of regressions on day 22 / Unscheduled death (Day of death): PO; for Tumor volume changes from baseline: Median: n = 7; for Anti-tumor effect on tumor growth (statistical significance versus control): two-way ANOVA, contrast analysis; for Regressions Complete: animals with complete regression / group of 7; for Regressions Complete / Regressions Partial / Unscheduled death (Day of death): 22 days; for Regressions Partial: animals with partial regression / group of 7; for ΔT/ΔC in % at day 22: ratio of median tumor volume changes from baseline, treated vs control; for ΔT/ΔC in % at day 22 / Median % of regressions on day 22 / Biological Interpretation: day 22; for Biological Interpretation: based on ΔT/ΔC and statistical analysis; for Unscheduled death (Day of death): deaths / group of 7
Procedure: Anti-tumor efficacy was evaluated by tumor volume measurement.
Female BALB/c nude mice were obtained from Shanghai Sino-British SIPPR/BK Laboratory Animal Co., LTD (Shanghai, CHINA). Animals were allowed to acclimate for at least four days before the study enrollment. Mice were 6 to 8 weeks old and weighed between 18 and 24 grams at the beginning of the treatments. These animals were housed under conditions outlined in the guidelines approved by the Institutional Animal Care and Use Committee (IACUC) of WuXi AppTec following the guidance of the Association for Assessment and Accreditation of Laboratory Animal Care (AAALAC).
Parental MCF7 cells were obtained from the American Type Culture Collection (ATCC® HTB-22™). MCF7-Y537S (ESR1) cell line was MCF7 cells expressing the ER. Y537S variant that was generated by Sanofi Biology Discovery Group. Y537S mutation was introduced in ESR1 construct (GenBank NM_000125.3) by site directed mutagenesis (Toy W. et al., Cancer Discovery, 2017, 7, 277-287). The construct was transfected in MCF7 cells, which were selected for their growth in absence of estradiol. MCF-Y537S is an ESR1 mutation that confers estrogen-independent activity to ERα(Estrogen Receptor alpha) and contributes to endocrine resistant disease (Robinson D.R. et al., Nat Genet., 2013, 45 (12), 1446-1451). The cells were grown in Eagle's Minimum Essential Medium (EMEM) supplemented with 10% fetal bovine serum (FBS), human Insulin, in 5% CO2 at 37° C. The cells were harvested in 0.25% Trypsin EDTA and washed by Phosphate Buffered Saline (PBS) and re-suspended in PBS with 75% Matrigel. The cells (20×10^6 cells/per mouse) were subcutaneously (SC) implanted into the right flank of female nude mice.
When the MCF7-Y537S tumors were established, the tumors were reserved as tumor stocks for fragment implantation. The tumors were serially propagated through fragment tissue transplantation subcutaneously. The fragment tumor tissues were subcutaneously implanted into the right flank of female nude mice. Twenty-eight mice were assigned in this experiment.
The animals required for experiment (plus extra) were pooled and implanted with MCF7-Y537S tumor fragment tissues. […] Animal body weight was assessed daily.
The dosages are expressed in mg/kg and based on daily body weight per animal. Vehicle treated animals were used as controls. Mice were checked daily for adverse clinical reactions. Individual mice were weighed daily until the end of the experiment. Mice would be euthanized when morbid or weight loss ≥20% was observed. Tumors were measured with a caliper twice weekly until final sacrifice. When a tumor size reached approximately 2000 mm^3 or when there are animal health issues (40% area of a tumor ulcerated), animals were euthanized, and date of death recorded. Solid tumor volumes were estimated from two-dimensional tumor measurements and calculated according to the following equation: […]
A dosage producing either 15% body weight loss during 3 consecutive days for an individual mouse, 20% body weight loss during 1 day, or 10% or more drug related deaths, was considered an excessively toxic dosage, unless under certain circumstances bodyweight loss or animal death can be considered non-drug related. […] Animal body weight included the tumor weight.
The primary efficacy end points include tumor volume changes from baseline summarized by the ratio of medians of tumor volume changes from baseline between the treated and control groups (ΔT/ΔC). Changes in tumor volume for each treated (T) and control (C) group were calculated for each animal on each day by subtracting the tumor volume on the day of first treatment (staging day) from the tumor volume on the specified observation day.

[1] = Day 4, amcenestrant 20 mg/kg BID, ribociclib 100 mg/kg QD
[2] = Day 8, amcenestrant 20 mg/kg BID, ribociclib 100 mg/kg QD
[3] = Day 11, amcenestrant 20 mg/kg BID, ribociclib 100 mg/kg QD
[4] = Day 15, amcenestrant 20 mg/kg BID, ribociclib 100 mg/kg QD
[5] = Day 22, amcenestrant 20 mg/kg BID, ribociclib 100 mg/kg QD
[6] = amcenestrant 20 mg/kg BID, ribociclib 100 mg/kg QD, PO for 22 days
[7] = amcenestrant 20 mg/kg BID, ribociclib 100 mg/kg QD
[8] = PO for 22 days, amcenestrant 20 mg/kg BID, ribociclib 100 mg/kg QD

## O=C(O)c1ccc2c(c1)CCCC(c1ccc(Cl)cc1Cl)=C2c1ccc(O[C@H]2CCN(CCCF)C2)cc1 [SAR439859, 6-(2,4-dichlorophenyl)-5-[4-[(3S)-1-(3-fluoropropyl)pyrrolidin-3-yl]oxyphenyl]-8,9-dihydro-7H-benzo[7]annulene-2-carboxylic acid]
[1]
  Tumor volume changes from baseline: Median: 43.0 mm^3
[2]
  Tumor volume changes from baseline: Median: 121.0 mm^3
[3]
  Tumor volume changes from baseline: Median: 214.0 mm^3
[4]
  Tumor volume changes from baseline: Median: 360.0 mm^3
Day 18, amcenestrant 20 mg/kg BID, ribociclib 100 mg/kg QD
  Tumor volume changes from baseline: Median: 392.0 mm^3
[5]
  Tumor volume changes from baseline: Median: 501.0 mm^3
[6]
  Anti-tumor effect on tumor growth (statistical significance versus control): no statistically significant anti-tumor effect
[7]
  Regressions Complete: 0/7
  Regressions Partial: 0/7
  Median % of regressions on day 22: 0%
  Unscheduled death (Day of death): 0/7
[8]
  ΔT/ΔC in % at day 22: 47%
  Biological Interpretation: Inactive*

## CN(C)C(=O)c1cc2cnc(Nc3ccc(N4CCNCC4)cn3)nc2n1C1CCCC1.O=C(O)CCC(=O)O [ribociclib, 7-cyclopentyl-N,N-dimethyl-2-[[5-(1-piperazinyl)-2-pyridinyl]amino]-7H-pyrrolo[2,3-d]pyrimidine-6-carboxamide]
[1]
  Tumor volume changes from baseline: Median: 44.0 mm^3
[2]
  Tumor volume changes from baseline: Median: 103.0 mm^3
[3]
  Tumor volume changes from baseline: Median: 183.0 mm^3
[4]
  Tumor volume changes from baseline: Median: 292.0 mm^3
[5]
  Tumor volume changes from baseline: Median: 423.0 mm^3
[6]
  Body weight loss: no significant body weight loss
  Tolerability: well-tolerated
  Anti-tumor effect on tumor growth (statistical significance versus control): no statistically significant anti-tumor efficacy
[7]
  Regressions Complete: 0/7
  Regressions Partial: 0/7
  Median % of regressions on day 22: 0%
  Unscheduled death (Day of death): 0/7
[8]
  ΔT/ΔC in % at day 22: 40%
  Biological Interpretation: Inactive*
